Source: PMC4640066 (Nature Communications, 2015)

What was measured:
[1] = tested on: HeLa cells expressing EB3-EGFP (interphase); test: EB3-EGFP signal tracking, interphase cells; format: cell-based, human; settings: 15 min; for Track length / Track lifetime / Velocity: interphase HeLa EB3-EGFP, mean±s.d.; for Track numbers: interphase, from a 144-μm^2 area inside the cell
Procedure: (§1) A HeLa ‘Kyoto' cell line stably expressing EB3-EGFP (a kind gift from Dr J. Ellenberg) was maintained in DMEM+GlutaMAX (Gibco) supplemented with 10% FBS, 2 mM L-glutamine, 100 U ml^−1 penicillin, 100 μg ml^−1 streptomycin, 1 mM sodium pyruvate and 0.5 mg ml^−1 G418. Cells were seeded into eight-well Lab-Tek chambers (Nunc, Rochester, NY) for 24-h prior imaging. For imaging, the medium was exchanged to Live Cell Imaging Solution (Molecular Probes Life Technologies) supplemented as described above and containing various concentrations of AG1 or gatastatin. Interphase cells were incubated with drugs for 15 min and mitotic cells were treated as described in Fig. 4c. Then, EB3 tracks were observed under a PerkinElmer UltraVIEW ERS Spinning Disk microscope (Software: UltraVIEW ERS Imaging Suite) equipped with a Plan-APOCHROMAT × 100/1.4 Oil DIC objective, a Confocal Scanner Unit (Yokogawa CSU 22), a Hamamatsu EM CCD camera (C9100-50) and a 488-nm Argon laser at 37 °C, and time-lapse sequences were performed for 60 s with a 400-ms interval. Automatic analysis of EB3-EGFP signal tracks was performed with ImageJ (http://imagej.nih.gov/ij/) and Matlab (Mathworks) as described.

[2] = tested on: HeLa cells expressing EB3-EGFP (mitotic spindle); test: EB3-EGFP signal tracking, mitotic (MG132 metaphase) cells; format: cell-based, human; settings: 30 μM
Procedure: Figure 4 Impact of gatastatin on mitotic spindle dynamics. (a,b) γ-Tubulin function is important for normal bipolar spindle formation. (a) Scheme of the experiment in b. HeLa cells were arrested at prometaphase by treatment with 10 μM of STLC for 15 h before STLC was washed out. Progression through mitotic phases was then monitored either in the presence or absence of 30 μM of gatastatin for 2 h. (b) The mitotic stages of 20 cells per experiment from the scheme in a were analysed in three independent experiments. Error bars represent s.d. (c–e) γ-Tubulin function is important for normal bipolar spindle maintenance. (c) Scheme of the experiment in d,e. After STLC washout, HeLa cells were arrested at metaphase with bipolar spindles by treatment with 5 μM of MG132 for 2 h. 30 μM Gatastatin was added to cells and incubated for 2 h in the presence of MG132. (d) The spindle length (distance between centrosomes) of cells in scheme c was measured as described in Fig. 3g. Spindles of 20 cells per experiment were analysed. Three independent experiments were performed and one representative experiment is shown. Error bars represent s.d. Two-tailed, unpaired Student's t-test was used to obtain P value. (e) The effect of gatastatin on spindle MT dynamics was analysed using HeLa cells expressing EB3-EGFP. EB3 signals of spindle in c were monitored. […] Scale bar, 5 μm.
as §1

α/β-tubulin = molecular target: T1, α/β-tubulin (Sus scrofa, UniProt P02550+P02554); test: MT dynamics in vitro by TIRF microscopy of single MTs; format: biochemical, porcine; settings: 30 μM, 5 μM tubulin, GMPCPP seeds
T1 construct: α/β-Tubulin was purified from porcine brain; from tissue; host or cells: porcine brain
Procedure: Purified α/β-tubulin was labelled with tetramethylrhodamine Succinimidyl Ester (C-1171, Life Technologies), Alexa Fluor 647 NHS Ester (A-20106, Life Technologies) or NHS-LC-biotin (21336, Life Technologies) as described. Briefly, α/β-tubulin was polymerized to form MTs. Then, the MTs were centrifuged, resuspended in labelling buffer containing NHS-conjugated dye or biotin. After the labelling reaction, two cycles of polymerization and depolymerization were performed to obtain active α/β-tubulin.
GMPCPP MT seeds were prepared by copolymerization of non-labelled tubulin, tetramethylrhodamine-labelled tubulin and biotin-labelled tubulin with 0.2 mM GMPCPP to yield the rhodamine and biotin labelling ratio 2% and 3%, respectively. GMPCPP was prepared enzymatically from GMPCP (M3170, Sigma-Aldrich) and nucleotide diphosphate kinase (N0379, Sigma-Aldrich)[35]. The glass chambers for observation were prepared as follows. […] The images of MTs were observed under total internal reflection fluorescence microscopy (IX81, Olympus) with a × 100 objective lens (UPlanSApo, numerical aperture (NA) 1.40, Olympus) and recorded at the frame rate of two frames per second using iXon3 EM CCD camera (Andor). […]

[3] = 2 h with MG132, mitotic HeLa EB3-EGFP, mean±s.d.

T1 sequence (P02550 whole entry): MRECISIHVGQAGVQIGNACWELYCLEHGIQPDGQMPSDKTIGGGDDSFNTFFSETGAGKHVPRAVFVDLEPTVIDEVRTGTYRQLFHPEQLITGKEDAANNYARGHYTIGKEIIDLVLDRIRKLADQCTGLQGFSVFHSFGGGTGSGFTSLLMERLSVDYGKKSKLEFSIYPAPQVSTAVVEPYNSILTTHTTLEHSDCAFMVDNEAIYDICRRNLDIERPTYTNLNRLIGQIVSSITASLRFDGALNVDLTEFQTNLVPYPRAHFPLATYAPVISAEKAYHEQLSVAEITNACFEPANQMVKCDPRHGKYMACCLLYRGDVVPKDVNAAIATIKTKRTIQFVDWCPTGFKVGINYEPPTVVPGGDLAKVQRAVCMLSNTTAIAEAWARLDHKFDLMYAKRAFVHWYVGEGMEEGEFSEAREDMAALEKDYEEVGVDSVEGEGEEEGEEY
T1 sequence (P02554 whole entry): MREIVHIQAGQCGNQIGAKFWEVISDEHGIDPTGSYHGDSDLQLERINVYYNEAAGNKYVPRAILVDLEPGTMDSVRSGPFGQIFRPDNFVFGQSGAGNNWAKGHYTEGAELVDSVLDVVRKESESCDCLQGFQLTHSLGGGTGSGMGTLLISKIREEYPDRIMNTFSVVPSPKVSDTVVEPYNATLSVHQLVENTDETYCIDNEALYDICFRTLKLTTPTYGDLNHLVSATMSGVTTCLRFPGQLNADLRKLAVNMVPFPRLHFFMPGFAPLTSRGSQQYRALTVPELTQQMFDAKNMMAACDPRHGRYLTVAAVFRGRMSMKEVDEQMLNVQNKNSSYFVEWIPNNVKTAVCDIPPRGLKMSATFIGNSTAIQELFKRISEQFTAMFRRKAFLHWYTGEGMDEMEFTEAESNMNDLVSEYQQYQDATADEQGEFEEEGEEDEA

`COc1cc2c(=O)c(-c3cc(OC)c4c(c3OC)OCO4)coc2cc1OCc1ccccc1` [Gatastatin, O^7-demethylbenzyl AG1] was tested, and the Track length ([1]; 3 μM) was 1.03±0.16 μm, the Track lifetime ([1]; 3 μM) was 3.45 ± 0.71 s and the Velocity ([1]; 3 μM) was 12.49±1.67 μm min^−1. It also gave a Track numbers ([1]; 3 μM) of 94±27, a Track length ([1]; 10 μM) of 0.84±0.10 μm and a Track lifetime ([1]; 10 μM) of 3.67 ± 0.62 s. The Velocity ([1]; 10 μM) was 10.03±0.99 μm min^−1, the Track numbers ([1]; 10 μM) was 83±30 and the Track length ([1]; 30 μM) was 0.71±0.08 μm. For the same compound, the Track lifetime ([1]; 30 μM) was 3.84 ± 0.50 s, the Velocity ([1]; 30 μM) was 8.43±0.81 μm min^−1 and the Track numbers ([1]; 30 μM) was 89±32. The Track length [2, 3] was 0.53±0.09 μm, the Track lifetime [2, 3] was 1.76 ± 0.66 s and the Velocity [2, 3] was 11.21±1.68 μm min^−1. For the same compound, the Track numbers ([2]; 2 h with MG132, mitotic, from a 25-μm^2 area in the spindle) was 37.27±8.12, the “Reduction of the number of growing MTs” value ([2]; preformed metaphase spindle (MG132), compared with control) was 17% and the “Effect on MT growth velocity (TIRF analysis of single MTs)” value (α/β-tubulin) was “did not affect MT growth velocity”.
